From PubChem BioAssay AID652121 (NMMLSC, 2013)
Active and inactive are the calls of the source.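 Rule for the calls: active = at least 15% of live cells showing both differentiation markers at top dose, and half-maximal dose below 10 µM; inactive = the rest.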

Experiments:
[1] = tested on: ER-HoxA9 myeloid progenitors, GFP+/MAC1+ differentiation flow cytometry; experiment: GFP+/MAC1+ double-positive induction in arrested progenitors – HOXA9ER cells, flow cytometry, Powder Set01 subset01, dose response (AID 652121)
[2] = as above; conditions: ER-HoxA9 myeloid progenitors, GFP+/MAC1+ differentiation flow cytometry; at 10 µM (top of the series)

Row | EC50 [1] | SMILES | percent double positive differentiation [2]
1 | 1.83 µM | Cc1ccc(Nc2nc(=O)c3cccnc3s2)c(Br)c1 | –
2 | – | O=C(O)c1cccnc1Nc1ccc(Cl)cc1 | 28.8% (inactive)
3 | – | O=C(CCNC(=O)c1ccc(Cl)cc1)NC1CCCc2ccccc21 (stereo not drawn) | 44% (inactive)
